Measurements published in ChEMBL document CHEMBL4725392, “Orally Bioavailable Small-Molecule CD73 Inhibitor (OP-5244) Reverses Immunosuppression through Blockade of Adenosine Production” (J Med Chem, 2020).

How the values were obtained:
5'-nucleotidase [1] = molecular target: T1, 5'-nucleotidase (Homo sapiens, UniProt P21589); test: Inhibition of human C-terminal His6-tagged CD73 expressed in CHO cells preincubated for 15 mins followed by AMP addition and measured after 10 mins by malachite green reagent based assay; type: cell-based
5'-nucleotidase [2] = molecular target: T2, 5'-nucleotidase (Mus musculus, UniProt Q61503); test: Inhibition of CD73 in mouse EMT6 cells assessed as reduction in AMP-induced ADO expression preincubated for 15 mins followed by AMP addition and measured after 1 hr by LC-MS/MS analysis; type: cell-based
T2 sequence (Q61503 whole entry): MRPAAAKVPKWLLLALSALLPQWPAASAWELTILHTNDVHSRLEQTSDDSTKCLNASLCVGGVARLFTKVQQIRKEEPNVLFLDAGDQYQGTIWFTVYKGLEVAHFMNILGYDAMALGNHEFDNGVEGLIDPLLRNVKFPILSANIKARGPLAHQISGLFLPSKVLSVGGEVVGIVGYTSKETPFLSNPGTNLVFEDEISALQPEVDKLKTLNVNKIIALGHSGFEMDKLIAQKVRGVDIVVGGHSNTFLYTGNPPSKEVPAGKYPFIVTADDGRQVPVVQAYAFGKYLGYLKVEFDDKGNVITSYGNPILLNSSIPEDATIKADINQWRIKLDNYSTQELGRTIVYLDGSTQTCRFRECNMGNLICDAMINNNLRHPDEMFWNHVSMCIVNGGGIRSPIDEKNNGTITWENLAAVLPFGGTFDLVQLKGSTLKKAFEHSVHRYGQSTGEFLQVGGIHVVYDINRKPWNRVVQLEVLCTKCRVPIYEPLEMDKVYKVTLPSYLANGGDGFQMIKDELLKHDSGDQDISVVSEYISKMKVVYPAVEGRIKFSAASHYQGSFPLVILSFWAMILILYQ

5'-nucleotidase [3] = molecular target: T1, 5'-nucleotidase; test: Inhibition of CD73 in human NCI-H1568 cells assessed as reduction in AMP-induced ADO expression preincubated for 15 mins followed by AMP addition and measured after 1 hr by LC-MS/MS analysis; type: cell-based
[4] = AUC infinity in mouse at 200 mg/kg, po; type: ADME, organism-based; design: route oral, time infinity, dose 200 mg/kg; details: in vivo
[5] = Cmax in mouse at 200 mg/kg, po; type: ADME, organism-based; design: route oral, dose 200 mg/kg; details: in vivo
[6] = Terminal half life in mouse at 200 mg/kg, po; type: ADME, organism-based; details: in vivo, read-out: beta t1/2 (converted)
[7] = AUC infinity in rat at 50 mg/kg, po; type: ADME, organism-based; design: time infinity, route oral, dose 50 mg/kg; details: in vivo
[8] = Cmax in rat at 50 mg/kg, po; type: ADME, organism-based; design: route oral, dose 50 mg/kg; details: in vivo
[9] = Terminal half life in rat at 50 mg/kg, po; type: ADME, organism-based; details: in vivo, read-out: beta t1/2 (converted)

T1 sequence (P21589 whole entry): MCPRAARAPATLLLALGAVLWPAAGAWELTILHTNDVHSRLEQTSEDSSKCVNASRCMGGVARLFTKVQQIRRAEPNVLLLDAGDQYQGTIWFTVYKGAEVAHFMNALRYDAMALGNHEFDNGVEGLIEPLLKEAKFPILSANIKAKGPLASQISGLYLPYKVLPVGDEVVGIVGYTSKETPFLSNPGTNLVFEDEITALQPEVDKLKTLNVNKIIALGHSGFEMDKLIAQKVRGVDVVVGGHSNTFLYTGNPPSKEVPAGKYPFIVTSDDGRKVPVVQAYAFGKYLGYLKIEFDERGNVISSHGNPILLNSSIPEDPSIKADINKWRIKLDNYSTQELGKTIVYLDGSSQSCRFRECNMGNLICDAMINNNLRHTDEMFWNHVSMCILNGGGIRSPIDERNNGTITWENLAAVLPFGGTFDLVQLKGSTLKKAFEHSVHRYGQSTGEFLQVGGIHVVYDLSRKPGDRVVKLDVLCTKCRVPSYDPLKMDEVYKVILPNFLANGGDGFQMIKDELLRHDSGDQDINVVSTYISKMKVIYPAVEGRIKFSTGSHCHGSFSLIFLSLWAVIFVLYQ

Row | IC50 (5'-nucleotidase [1]) [nM] | SMILES | also measured
1 | 164 | O=P(O)(O)CSC[C@H]1O[C@@H](n2ncc3c(NCc4ccccc4Cl)nc(Cl)nc32)[C@H](O)[C@@H]1O | 
2 | 131 | COP(=O)(O)CP(=O)(O)OC[C@H]1O[C@@H](n2ncc3c(NCc4ccccc4Cl)nc(Cl)nc32)[C@H](O)[C@@H]1O | 
3 | 328 | O=P(O)(O)CS(=O)(=O)NC[C@H]1O[C@@H](n2ncc3c(NCc4ccccc4Cl)nc(Cl)nc32)[C@H](O)[C@@H]1O | 
4 | 510 | O=C(CP(=O)(O)O)OC[C@H]1O[C@@H](n2ncc3c(NCc4ccccc4Cl)nc(Cl)nc32)[C@H](O)[C@@H]1O | 
5 | 2870 | COP(=O)(O)CP(=O)(OC)OC[C@H]1O[C@@H](n2ncc3c(NCc4ccccc4Cl)nc(Cl)nc32)[C@H](O)[C@@H]1O (some centres undefined) | 
6 | 3.9 | O=P(O)(O)CP(=O)(O)OC[C@H]1O[C@@H](n2nnc3c(NCc4ccccc4Cl)nc(Cl)nc32)[C@H](O)[C@@H]1O | 
7 | 13 | O=P(O)(O)CS(=O)(=O)C[C@H]1O[C@@H](n2ncc3c(NCc4ccccc4Cl)nc(Cl)nc32)[C@H](O)[C@@H]1O | AUC(0-inf) [7]: 0.54 µM·h; Cmax [8]: 0.06 µM; half-life [9]: 3 h
8 | 248 | CN(C[C@H]1O[C@@H](n2ncc3c(NCc4ccccc4Cl)nc(Cl)nc32)[C@H](O)[C@@H]1O)C(=O)CP(=O)(O)O | 
9 | 1200 | O=P(O)(O)COCC[C@H]1O[C@@H](n2ncc3c(NCc4ccccc4Cl)nc(Cl)nc32)[C@H](O)[C@@H]1O | 
10 | 0.52 | CN(c1nc(Cl)nc2c1cnn2[C@@H]1O[C@H](COP(=O)(O)CP(=O)(O)O)[C@@H](O)[C@H]1O)[C@H]1CCc2ccccc21 | 
11 | 1.3 | CN(c1nc(Cl)nc2c1nnn2[C@@H]1O[C@H](COP(=O)(O)CP(=O)(O)O)[C@@H](O)[C@H]1O)[C@H]1CCc2ccccc21 | 
12 | 3 | CN(Cc1ccccc1)c1nc(Cl)nc2c1ncn2[C@@H]1O[C@H](COP(=O)(O)CP(=O)(O)O)[C@@H](O)[C@H]1O | 
13 | 11 | O=P(O)(O)COC[C@H]1O[C@@H](n2ncc3c(NC4CCCC4)nc(Cl)nc32)[C@H](O)[C@@H]1O | 
14 | 88 | O=P(O)(O)CCOC[C@H]1O[C@@H](n2ncc3c(NCc4ccccc4Cl)nc(Cl)nc32)[C@H](O)[C@@H]1O | 
15 | 29 | O=P(O)(O)COC[C@H]1O[C@@H](n2ncc3c(NCc4ccccc4Cl)nc(Cl)nc32)[C@H](O)[C@@H]1O | AUC(0-inf) [7]: 0.66 µM·h; Cmax [8]: 0.11 µM; half-life [9]: 1.9 h

Further lines, the molecule ahead of its results:

Row | SMILES | IC50 (5'-nucleotidase [1]) [nM] | also measured
16 | COCC(OC[C@H]1O[C@@H](n2ncc3c(NC4CCCC4)nc(Cl)nc32)[C@H](O)[C@@H]1O)P(=O)(O)O (mixture of isomers) | 0.96 | 
17 | CN(C)CC(C)(OC[C@H]1O[C@@H](n2ncc3c(NC4CCCC4)nc(Cl)nc32)[C@H](O)[C@@H]1O)P(=O)(O)O (mixture of isomers) | > 5000 | 
18 | N#CC(OC[C@H]1O[C@@H](n2ncc3c(NC4CCCC4)nc(Cl)nc32)[C@H](O)[C@@H]1O)P(=O)(O)O (mixture of isomers) | 559 | 
19 | COC[C@@](CO)(OC[C@H]1O[C@@H](n2ncc3c(NC4CCCC4)nc(Cl)nc32)[C@H](O)[C@@H]1O)P(=O)(O)O | 1 | 
20 | O=P(O)(O)C(CO)OC[C@H]1O[C@@H](n2ncc3c(NC4CCCC4)nc(Cl)nc32)[C@H](O)[C@@H]1O (mixture of isomers) | 2.4 | 
21 | O=P(O)(O)C(OC[C@H]1O[C@@H](n2ncc3c(NC4CCCC4)nc(Cl)nc32)[C@H](O)[C@@H]1O)C(F)(F)F (mixture of isomers) | 387 | 
22 | C[C@H](Nc1cc(Cl)nc2c1cnn2[C@@H]1O[C@H](COP(=O)(O)CP(=O)(O)O)[C@@H](O)[C@H]1O)c1ccccc1F |  | EC50 (5'-nucleotidase [2]): 198 nM
23 | CS(=O)(=O)C(OC[C@H]1O[C@@H](n2ncc3c(NC4CCCC4)nc(Cl)nc32)[C@H](O)[C@@H]1O)P(=O)(O)O (mixture of isomers) | 193 | 
24 | COP(=O)(CP(=O)(O)O)OC[C@H]1O[C@@H](n2ncc3c(NCc4ccccc4Cl)nc(Cl)nc32)[C@H](O)[C@@H]1O (some centres undefined) | 24.7 | 
25 | CC(CCO)(OC[C@H]1O[C@@H](n2ncc3c(NC4CCCC4)nc(Cl)nc32)[C@H](O)[C@@H]1O)P(=O)(O)O (mixture of isomers) | 31 | 
26 | CC(CS(C)(=O)=O)(OC[C@H]1O[C@@H](n2ncc3c(NC4CCCC4)nc(Cl)nc32)[C@H](O)[C@@H]1O)P(=O)(O)O (mixture of isomers) | 23 | 
27 | O=P(O)(O)C(CO)(CO)OC[C@H]1O[C@@H](n2ncc3c(NC4CCCC4)nc(Cl)nc32)[C@H](O)[C@@H]1O | 0.57 | EC50 (5'-nucleotidase [3]): 3.7 nM; EC50 (5'-nucleotidase [2]): 46 nM; AUC(0-inf) [4]: 95.6 µM·h; Cmax [5]: 67.4 µM; half-life [6]: 3.3 h
28 | O=P(O)(O)C(OC[C@H]1O[C@@H](n2ncc3c(NC4CCCC4)nc(Cl)nc32)[C@H](O)[C@@H]1O)c1nnn[nH]1 (mixture of isomers) | 28 | 
29 | CN(CC(C)(OC[C@H]1O[C@@H](n2ncc3c(NC4CCCC4)nc(Cl)nc32)[C@H](O)[C@@H]1O)P(=O)(O)O)S(C)(=O)=O (mixture of isomers) | 97 | 
30 | Nc1ncnc2c1ncn2[C@@H]1O[C@H](COP(=O)(O)CP(=O)(O)O)[C@@H](O)[C@H]1O [PHOSPHOMETHYLPHOSPHONIC ACID ADENOSYL ESTER] | 2650 | EC50 (5'-nucleotidase [3]): 16300 nM
31 | CSCC(C)(OC[C@H]1O[C@@H](n2ncc3c(NC4CCCC4)nc(Cl)nc32)[C@H](O)[C@@H]1O)P(=O)(O)O (mixture of isomers) | 10 | 
32 | COCC(CO)(OC[C@H]1O[C@@H](n2ncc3c(NC4CCCC4)nc(Cl)nc32)[C@H](O)[C@@H]1O)P(=O)(O)O (mixture of isomers) | 0.53 | 
33 | C[C@@](CO)(OC[C@H]1O[C@@H](n2ncc3c(NC4CCCC4)nc(Cl)nc32)[C@H](O)[C@@H]1O)P(=O)(O)O | 0.51 | EC50 (5'-nucleotidase [3]): 6.9 nM; EC50 (5'-nucleotidase [2]): 41 nM; AUC(0-inf) [4]: 54.2 µM·h; Cmax [5]: 54.9 µM; half-life [6]: 2.88 h
34 | O=C(O)C(OC[C@H]1O[C@@H](n2ncc3c(NC4CCCC4)nc(Cl)nc32)[C@H](O)[C@@H]1O)P(=O)(O)O (mixture of isomers) | 108 | 
35 | C[C@](CO)(OC[C@H]1O[C@@H](n2ncc3c(NC4CCCC4)nc(Cl)nc32)[C@H](O)[C@@H]1O)P(=O)(O)O | 11.7 | 
36 | CC(CO)(OC[C@H]1O[C@@H](n2ncc3c(NC4CCCC4)nc(Cl)nc32)[C@H](O)[C@@H]1O)P(=O)(O)O (mixture of isomers) | 1.3 | 
37 | CC(OC[C@H]1O[C@@H](n2ncc3c(NC4CCCC4)nc(Cl)nc32)[C@H](O)[C@@H]1O)P(=O)(O)O (mixture of isomers) | 18 | 
